In assay [1] the target is Dihydroorotate dehydrogenase (quinone), mitochondrial (Homo sapiens, UniProt Q02127). The experiment in a line: DHODH Biochemical Assay.
Assay [2] has as its target T1, Dihydroorotate dehydrogenase (quinone), mitochondrial (Plasmodium falciparum (isolate 3D7), UniProt Q08210).
T1 sequence (Q08210 whole entry): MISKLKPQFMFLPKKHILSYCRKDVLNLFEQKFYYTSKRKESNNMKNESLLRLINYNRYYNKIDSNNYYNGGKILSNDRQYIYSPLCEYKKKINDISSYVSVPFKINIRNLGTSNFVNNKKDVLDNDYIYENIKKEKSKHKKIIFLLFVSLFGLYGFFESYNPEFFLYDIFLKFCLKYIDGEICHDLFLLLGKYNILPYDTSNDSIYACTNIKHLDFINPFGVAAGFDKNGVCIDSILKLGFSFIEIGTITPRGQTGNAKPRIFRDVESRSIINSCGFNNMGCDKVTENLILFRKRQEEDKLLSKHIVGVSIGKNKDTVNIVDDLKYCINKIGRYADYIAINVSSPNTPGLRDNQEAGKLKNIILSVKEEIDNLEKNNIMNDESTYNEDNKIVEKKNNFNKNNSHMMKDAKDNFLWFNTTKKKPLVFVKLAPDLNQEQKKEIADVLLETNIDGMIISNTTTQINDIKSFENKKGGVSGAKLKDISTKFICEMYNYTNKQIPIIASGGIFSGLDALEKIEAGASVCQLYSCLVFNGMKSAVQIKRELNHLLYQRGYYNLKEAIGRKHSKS
As to the kind of experiment: DHODH Biochemical Assay.

This is an account of results in BindingDB's records for doi:10.1074/jbc.M114.558353 (Harvard School of Public Health, 2014).

Sequence of Dihydroorotate dehydrogenase (quinone), mitochondrial (Homo sapiens, UniProt Q02127) (Q02127 whole entry): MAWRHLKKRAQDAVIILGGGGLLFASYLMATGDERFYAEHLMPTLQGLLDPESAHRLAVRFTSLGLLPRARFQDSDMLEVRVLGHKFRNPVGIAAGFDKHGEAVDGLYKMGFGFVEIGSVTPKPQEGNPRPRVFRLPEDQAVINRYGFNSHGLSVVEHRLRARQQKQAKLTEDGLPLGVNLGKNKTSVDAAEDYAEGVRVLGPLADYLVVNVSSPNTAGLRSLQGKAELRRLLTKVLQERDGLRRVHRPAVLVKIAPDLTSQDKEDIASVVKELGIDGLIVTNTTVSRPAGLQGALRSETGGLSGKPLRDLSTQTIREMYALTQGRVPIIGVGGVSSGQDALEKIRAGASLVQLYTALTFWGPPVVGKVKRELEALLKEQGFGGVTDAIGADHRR

As a reminder, the IC50 is the concentration needed to halve the response being measured. Take `CCSc1nnc(C2CCCN(CC(=O)Nc3cc(C(F)(F)F)ccc3Cl)C2)n1CC` (stereo not drawn) [GSK3]: the IC50 in assay [1] was above 30 µM; in assay [2] it was 1.7 µM.

For `CCOc1cccc(=O)c2c(C)n(Cc3ccc(Cl)cc3)c(C)c12` [IDI-6273], the figures for the IC50 in assay [1] and in assay [2] were above 30 µM and 13.5 µM, respectively.

For `Cc1nnc2c3ccccc3c(N3CCc4ccccc4C3)nn12` [IDI-6253], the IC50 in assay [1] worked out at 3.8 µM; in assay [2], 3.5 µM.

Regarding `Cc1nc2c(C#N)cccc2n1-c1ccc(C(=O)NC2CC2)s1`, the IC50 in assay [1] was above 30 µM; in assay [2], 0.08 µM.
